# Assay results from patent publication US9095136B2, “2-IODO imidazole-derivatives” (BAYER INTELLECTUAL PROPERTY GMBH, priority 2011, dated 2015).
# Tests used:
# Pyricularia oryzae = format: in vivo; conditions: rice, protective, 500 ppm, evaluation 7 days after inoculation
# Venturia inaequalis = test: Example D: Venturia test (apple)/protective; format: in vivo; conditions: protective, 100 ppm, evaluation 10 days after inoculation
# Procedure: (§1) Solvent: 24.5 parts by weight of acetone • 24.5 parts by weight of dimethylacetamide Emulsifier: 1 part by weight of alkylaryl polyglycol ether To produce a suitable preparation of active compound, 1 part by weight of active compound is mixed with the stated amounts of solvent and emulsifier, and the concentrate is diluted with water to the desired concentration. To test for protective activity, young plants are sprayed with the preparation of active compound at the stated application rate. […] The plants are then placed in a greenhouse at about 21° C. and a relative atmospheric humidity of about 90%.
# Phakopsora pachyrhizi = test: Example F: Phakopsora test (soya beans)/protective; format: in vivo; conditions: protective, 100 ppm, evaluation 7 days after inoculation
# Procedure: (§2) Solvents: 24.5 parts by weight of acetone • 24.5 parts by weight of dimethylacetamide Emulsifier: 1 part by weight of alkylaryl polyglycol ether To produce a suitable preparation of active compound, 1 part by weight of active compound is mixed with the stated amounts of solvent and emulsifier, and the concentrate is diluted with water to the desired concentration. To test for protective activity, young plants are sprayed with the preparation of active compound at the stated application rate.
# [1] = tested on: Blumeria graminis f.sp. hordei; test: Example G: Blumeria graminis test (barley)/protective; format: in vivo; conditions: protective, 500 ppm, evaluation 7 days after inoculation
# Procedure: as §2, with “Solvent: 49” for “Solvents: 24.5”, “N,N-dimethylacetamide” for “acetone • 24.5 parts by weight of dimethylacetamide”, “rate. After the spray coating has dried on, the plants are dusted with spores of Blumeria graminis f.sp. hordei.” for “rate.”
# Septoria tritici [2] = test: Example I: Septoria tritici test (wheat)/protective; format: in vivo; conditions: protective, 500 ppm, evaluation 21 days after inoculation
# Procedure: as §2, with “Solvent: 49” for “Solvents: 24.5”, “N,N-dimethylacetamide” for “acetone • 24.5 parts by weight of dimethylacetamide”, “rate. After the spray coating has dried on, the plants are sprayed with a spore suspension of Septoria tritici.” for “rate.”
# Pyrenophora teres [3] = test: Example K: Pyrenophora teres test (barley)/protective; format: in vivo; conditions: protective, 500 ppm, evaluation 8 days after inoculation
# Procedure: as §2, with “Solvent: 49” for “Solvents: 24.5”, “N,N-dimethylacetamide” for “acetone • 24.5 parts by weight of dimethylacetamide”, “rate. After the spray coating has dried on, the plants are sprayed with a spore suspension of Pyrenophora teres.” for “rate.”
# Pyrenophora teres [4] = test: Example R: preventative in vivo test with Pyrenophora teres (net blotch on barley); conditions: 500 ppm, evaluation 12 days after inoculation
# Procedure: The active compounds tested are prepared by homogenization in a mixture of acetone/Tween/DMSO and then diluted with water to the desired active compound concentration. Barley plants (cultivar “Plaisant”), sown in a 50/50 peat/pozzolana soil substrate and cultivated at 22° C. (12 h)/20° C. (12 h), are treated at the 1-leaf stage (height 10 cm) by spraying with the active compound, prepared as above. As a control, plants are treated with the mixture of acetone/Tween/DMSO/water without the active compound. After 24 hours, the plants are inoculated by spraying the leaves with an aqueous suspension of Pyrenophora teres spores.
# Septoria tritici [5] = test: Example U: preventative in vivo test with Septoria tritici (leaf blotch disease on wheat); conditions: 500 ppm, evaluation 21 to 28 days after inoculation
# Procedure: The active compounds tested are prepared by homogenization in a mixture of acetone/Tween/DMSO and then diluted with water to the desired active compound concentration. Wheat plants (cultivar “Scipion”), sown in a 50/50 peat/pozzolana soil substrate and cultivated at 22° C. (12 h)/20° C. (12 h), are treated at the 1-leaf stage (height 10 cm) by spraying with the active compound, prepared as above. As a control, plants are treated with the mixture of acetone/Tween/DMSO/water without the active compound. After 24 hours, the plants are inoculated by spraying the leaves with an aqueous suspension of cryogenically preserved Septoria tritici spores.
# Uromyces appendiculatus = test: Example Y: Uromyces test (beans)/protective, comparison; format: in vivo; conditions: protective, application rate 10 ppm, evaluation 10 days after inoculation
# Procedure: as §1, with “Solvents:” for “Solvent:”
# Septoria tritici [6] = test: Example Z: Septoria tritici test (wheat)/protective, comparison; format: in vivo; conditions: protective, application rate 250 ppm, evaluation 21 days after inoculation
# Procedure: Solvent: 49 parts by weight of N,N-dimethylacetamide Emulsifier: 1 part by weight of alkylaryl polyglycol ether To produce a suitable preparation of active compound, 1 part by weight of active compound or active compound combination is mixed with the stated amounts of solvent and emulsifier, and the concentrate is diluted with water to the desired concentration. To test for protective activity, young plants are sprayed with the preparation of active compound or active compound combination at the stated application rate. After the spray coating has dried on, the plants are sprayed with a spore suspension of Septoria tritici.
compound,measurement,setting,value
"OC(Cc1ccccc1Cl)(Cn1ccnc1I)C1(Cl)CC1 (stereo not shown) [Example 1, 2-(1-chlorocyclopropyl)-1-(2-chlorophenyl)-3-(2-iodo-1H-imidazol-1-yl)propan-2-ol]",Eff. %,Pyricularia oryzae,95%
same,Eff. %,Venturia inaequalis,100%
same,Eff. %,Phakopsora pachyrhizi,98%
same,Eff. %,[1],100%
same,Eff. %,Septoria tritici [2],100%
same,Eff. %,Pyrenophora teres [3],100%
same,Efficacy %,Pyrenophora teres [4],100%
same,Efficacy %,Septoria tritici [5],100%
same,Efficacy in %,Uromyces appendiculatus,100%
same,Efficacy in %,Septoria tritici [6],86%
